Measured values: patent US6916432B2, “Hair bleach composition and hair dye composition” (Kao Corporation, priority 2000, dated 2005)

What was measured:
[1] = partition coefficient (octanol-water) (log P) at 25° C.; conditions: for logP: octanol/water

Row | logP [1] | SMILES | logP (physchem) | further results
1 | -0.2 | CCN1CCCC1=O [N-ethylpyrrolidone] | – | –
2 | -2.2 | OCC(O)CO [glycerin] | – | –
3 | 0.9 | CCCCOCCOCCO [diethylene glycol mono-n-butyl ether] | – | –
4 | 1.2 | OCCOCc1ccccc1 [2-benzyloxyethanol] | – | –
5 | -1.1 | CC(O)CO (centres unmarked) [propylene glycol] | – | –
6 | 1.1 | CC(O)COc1ccccc1 (centres unmarked) [1-phenoxy-2-propanol] | – | –
7 | -0.2 | CCOCCO [2-ethoxyethanol] | – | –
8 | -0.5 | CN1CCCC1=O [N-methylpyrrolidone] | – | –

Continued, compound first:

Row | SMILES | logP [1] | logP (physchem) | further results
9 | CC(O)CCO (centres unmarked) [1,3-butanediol] | – | -1.4 | –
10 | CCCCOCCO [ethylene glycol mono-n-butyl ether] | – | 0.8 | –
11 | OC1CCCCC1 [cyclohexanol] | – | 1.2 | –
12 | OCCOc1ccccc1 [2-phenoxyethanol] | – | 1.2 | –
13 | OCCOCCO [diethylene glycol] | – | -1.3 | –
14 | COCCOCCO [methoxydiglycol] | – | – | log P (at 25° C.) ([1]; octanol-water, 25° C.): −0.7
